Article PMC8800111 (The Journal of Biological Chemistry, 2021)

Assays:
Type in all cases: cell-based
[1] = molecular target: proteins of U3A human fibrosarcoma cells (4462 proteins detected) (Homo sapiens, UniProt Q16401); details: protein PSMD5; soluble abundance after heat, U3A cells
[2] = molecular target: proteins of U3A human fibrosarcoma cells (4462 proteins detected) (Homo sapiens, UniProt Q04721); details: protein NOTCH2, U3A cells
[3] = molecular target: proteins of U3A human fibrosarcoma cells (4462 proteins detected) (Homo sapiens, UniProt P07602); details: protein PSAP; soluble abundance after heat, U3A cells
[4] = molecular target: proteins of U3A human fibrosarcoma cells (4462 proteins detected) (Homo sapiens, UniProt Q8NBJ4); details: protein GOLM1; U3A, 10 μM, 2 h
[5] = molecular target: proteins of U3A human fibrosarcoma cells (4462 proteins detected) (Homo sapiens, UniProt Q14657); details: protein LAGE3; soluble abundance after heat, U3A cells
[6] = molecular target: proteins of U3A human fibrosarcoma cells (4462 proteins detected) (Homo sapiens, UniProt P04920); details: protein SLC4A2; U3A cells
[7] = molecular target: proteins of U3A human fibrosarcoma cells (4462 proteins detected) (Homo sapiens, UniProt Q00765); details: protein REEP5; U3A cells
[8] = molecular target: proteins of U3A human fibrosarcoma cells (4462 proteins detected) (Homo sapiens, UniProt Q8IUD2); details: protein ERC1, U3A cells
[9] = molecular target: proteins of U3A human fibrosarcoma cells (4462 proteins detected) (Homo sapiens, UniProt Q8IXJ6); details: protein SIRT2; U3A cells
[10] = molecular target: proteins of U3A human fibrosarcoma cells (4462 proteins detected) (Homo sapiens, UniProt O14965); details: protein AURKA; soluble abundance after heat, U3A cells
[11] = molecular target: proteins of U3A human fibrosarcoma cells (4462 proteins detected) (Homo sapiens, UniProt Q9BWU0); details: protein SLC4A1AP, U3A cells
[12] = molecular target: proteins of U3A human fibrosarcoma cells (4462 proteins detected) (Homo sapiens, UniProt Q99661); details: protein KIF2C; U3A cells
[13] = molecular target: proteins of U3A human fibrosarcoma cells (4462 proteins detected) (Homo sapiens, UniProt Q96D46); details: protein NMD3; soluble abundance after heat, U3A cells
[14] = molecular target: proteins of U3A human fibrosarcoma cells (4462 proteins detected) (Homo sapiens, UniProt P25325); details: protein MPST, U3A cells
[15] = molecular target: proteins of U3A human fibrosarcoma cells (4462 proteins detected) (Homo sapiens, UniProt Q9NRN7); details: protein AASDHPPT; U3A cells
[16] = molecular target: proteins of U3A human fibrosarcoma cells (4462 proteins detected) (Homo sapiens, UniProt O75886); details: protein STAM2; U3A cells
[17] = molecular target: proteins of U3A human fibrosarcoma cells (4462 proteins detected) (Homo sapiens, UniProt P62873); details: protein GNB1; U3A cells
[18] = molecular target: proteins of U3A human fibrosarcoma cells (4462 proteins detected) (Homo sapiens, UniProt P22059); details: protein OSBP; soluble abundance after heat, U3A cells
[19] = molecular target: proteins of U3A human fibrosarcoma cells (4462 proteins detected) (Homo sapiens, UniProt Q76FK4); details: protein NOL8; soluble abundance after heat, U3A cells
[20] = molecular target: proteins of U3A human fibrosarcoma cells (4462 proteins detected) (Homo sapiens, UniProt Q9H6E4); details: protein CCDC134; U3A, 10 μM, 2 h
[21] = molecular target: proteins of U3A human fibrosarcoma cells (4462 proteins detected) (Homo sapiens, UniProt Q9UJ68); details: protein MSRA, U3A cells
[22] = molecular target: proteins of U3A human fibrosarcoma cells (4462 proteins detected) (Homo sapiens, UniProt Q9Y281); details: protein CFL2, U3A cells
[23] = molecular target: proteins of U3A human fibrosarcoma cells (4462 proteins detected) (Homo sapiens, UniProt Q16774); details: protein GUK1; U3A, 10 μM, 2 h
[24] = molecular target: proteins of U3A human fibrosarcoma cells (4462 proteins detected) (Homo sapiens, UniProt Q13620); details: protein CUL4B; U3A cells
[25] = molecular target: proteins of U3A human fibrosarcoma cells (4462 proteins detected) (Homo sapiens, UniProt Q96P48); details: protein ARAP1; soluble abundance after heat, U3A cells
[26] = molecular target: proteins of U3A human fibrosarcoma cells (4462 proteins detected) (Homo sapiens, UniProt Q96FF9); details: protein CDCA5; U3A cells
[27] = molecular target: proteins of U3A human fibrosarcoma cells (4462 proteins detected) (Homo sapiens, UniProt P61081); details: protein UBE2M; U3A cells
[28] = molecular target: proteins of U3A human fibrosarcoma cells (4462 proteins detected) (Homo sapiens, UniProt Q9HD33); details: protein MRPL47; U3A cells
[29] = molecular target: proteins of U3A human fibrosarcoma cells (4462 proteins detected) (Homo sapiens, UniProt P55769); details: protein NHP2L1; soluble abundance after heat, U3A cells
proteins of U3A human fibrosarcoma cells (4462 proteins detected) (Homo sapiens, UniProt P55769), sequence (P55769 whole entry): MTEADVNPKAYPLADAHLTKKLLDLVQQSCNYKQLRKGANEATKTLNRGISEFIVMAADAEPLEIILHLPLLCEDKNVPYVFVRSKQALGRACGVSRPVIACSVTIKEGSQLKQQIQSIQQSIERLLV

proteins of U3A human fibrosarcoma cells (4462 proteins detected) (Homo sapiens, UniProt Q9H6E4), sequence (Q9H6E4 23-229): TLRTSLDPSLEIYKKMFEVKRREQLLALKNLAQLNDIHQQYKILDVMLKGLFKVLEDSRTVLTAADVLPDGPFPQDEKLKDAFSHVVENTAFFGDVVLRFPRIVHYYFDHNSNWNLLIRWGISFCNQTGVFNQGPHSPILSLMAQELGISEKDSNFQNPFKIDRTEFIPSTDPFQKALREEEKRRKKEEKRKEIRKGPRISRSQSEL
proteins of U3A human fibrosarcoma cells (4462 proteins detected) (Homo sapiens, UniProt P07602), sequence (P07602 60-524): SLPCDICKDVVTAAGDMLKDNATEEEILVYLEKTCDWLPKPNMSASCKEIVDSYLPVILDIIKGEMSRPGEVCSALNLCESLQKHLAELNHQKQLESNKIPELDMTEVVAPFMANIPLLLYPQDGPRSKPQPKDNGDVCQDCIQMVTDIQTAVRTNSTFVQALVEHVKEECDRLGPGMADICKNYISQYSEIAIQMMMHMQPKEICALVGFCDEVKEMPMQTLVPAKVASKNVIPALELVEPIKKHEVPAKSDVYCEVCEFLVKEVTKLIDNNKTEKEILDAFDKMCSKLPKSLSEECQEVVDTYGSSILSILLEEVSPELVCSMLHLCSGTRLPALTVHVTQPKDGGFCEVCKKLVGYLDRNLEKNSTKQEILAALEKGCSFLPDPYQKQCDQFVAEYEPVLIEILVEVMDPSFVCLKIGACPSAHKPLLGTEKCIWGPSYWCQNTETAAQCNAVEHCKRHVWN
proteins of U3A human fibrosarcoma cells (4462 proteins detected) (Homo sapiens, UniProt Q99661), sequence (Q99661 whole entry): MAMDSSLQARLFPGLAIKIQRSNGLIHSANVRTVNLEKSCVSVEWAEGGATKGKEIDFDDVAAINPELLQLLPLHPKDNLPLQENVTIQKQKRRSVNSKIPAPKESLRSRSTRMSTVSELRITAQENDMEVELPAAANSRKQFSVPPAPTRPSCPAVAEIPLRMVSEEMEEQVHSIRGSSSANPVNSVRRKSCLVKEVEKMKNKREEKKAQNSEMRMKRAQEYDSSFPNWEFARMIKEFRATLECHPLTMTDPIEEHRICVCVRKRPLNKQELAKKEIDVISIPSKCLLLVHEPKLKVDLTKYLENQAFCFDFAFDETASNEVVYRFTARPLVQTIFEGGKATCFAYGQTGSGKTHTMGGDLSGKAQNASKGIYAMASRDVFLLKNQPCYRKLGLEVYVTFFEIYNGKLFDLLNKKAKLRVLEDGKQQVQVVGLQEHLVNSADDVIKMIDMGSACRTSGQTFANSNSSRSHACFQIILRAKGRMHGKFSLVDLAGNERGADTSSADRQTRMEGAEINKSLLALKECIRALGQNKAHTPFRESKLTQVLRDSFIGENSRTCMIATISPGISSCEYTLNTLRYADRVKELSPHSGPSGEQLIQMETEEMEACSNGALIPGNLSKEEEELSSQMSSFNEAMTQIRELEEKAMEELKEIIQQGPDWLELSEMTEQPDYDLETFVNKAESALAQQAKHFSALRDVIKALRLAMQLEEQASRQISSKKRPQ
proteins of U3A human fibrosarcoma cells (4462 proteins detected) (Homo sapiens, UniProt Q9BWU0), sequence (Q9BWU0 whole entry): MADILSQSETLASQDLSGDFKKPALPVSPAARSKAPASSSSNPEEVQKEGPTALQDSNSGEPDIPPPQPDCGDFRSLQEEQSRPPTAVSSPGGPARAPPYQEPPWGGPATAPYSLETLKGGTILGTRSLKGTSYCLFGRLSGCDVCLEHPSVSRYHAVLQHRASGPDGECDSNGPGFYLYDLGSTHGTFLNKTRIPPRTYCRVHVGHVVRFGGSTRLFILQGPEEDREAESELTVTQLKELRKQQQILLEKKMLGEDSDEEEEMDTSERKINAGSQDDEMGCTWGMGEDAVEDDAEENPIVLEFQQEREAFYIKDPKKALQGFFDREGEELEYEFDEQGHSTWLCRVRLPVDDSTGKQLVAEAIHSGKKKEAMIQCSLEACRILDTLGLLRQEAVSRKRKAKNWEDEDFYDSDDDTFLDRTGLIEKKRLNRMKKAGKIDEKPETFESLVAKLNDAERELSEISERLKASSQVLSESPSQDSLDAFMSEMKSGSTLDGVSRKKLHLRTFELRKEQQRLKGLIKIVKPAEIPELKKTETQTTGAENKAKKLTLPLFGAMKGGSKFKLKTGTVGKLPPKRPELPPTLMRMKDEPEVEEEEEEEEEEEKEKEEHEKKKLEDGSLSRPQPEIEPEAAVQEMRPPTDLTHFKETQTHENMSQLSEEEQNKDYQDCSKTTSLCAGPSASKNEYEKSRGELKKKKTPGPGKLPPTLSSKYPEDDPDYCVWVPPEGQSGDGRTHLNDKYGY
proteins of U3A human fibrosarcoma cells (4462 proteins detected) (Homo sapiens, UniProt Q14657), sequence (Q14657 whole entry): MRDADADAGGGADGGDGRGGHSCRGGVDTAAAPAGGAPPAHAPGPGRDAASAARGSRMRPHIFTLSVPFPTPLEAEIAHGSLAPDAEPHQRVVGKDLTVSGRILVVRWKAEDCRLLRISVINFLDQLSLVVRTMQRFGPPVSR
proteins of U3A human fibrosarcoma cells (4462 proteins detected) (Homo sapiens, UniProt Q16401), sequence (Q16401 whole entry): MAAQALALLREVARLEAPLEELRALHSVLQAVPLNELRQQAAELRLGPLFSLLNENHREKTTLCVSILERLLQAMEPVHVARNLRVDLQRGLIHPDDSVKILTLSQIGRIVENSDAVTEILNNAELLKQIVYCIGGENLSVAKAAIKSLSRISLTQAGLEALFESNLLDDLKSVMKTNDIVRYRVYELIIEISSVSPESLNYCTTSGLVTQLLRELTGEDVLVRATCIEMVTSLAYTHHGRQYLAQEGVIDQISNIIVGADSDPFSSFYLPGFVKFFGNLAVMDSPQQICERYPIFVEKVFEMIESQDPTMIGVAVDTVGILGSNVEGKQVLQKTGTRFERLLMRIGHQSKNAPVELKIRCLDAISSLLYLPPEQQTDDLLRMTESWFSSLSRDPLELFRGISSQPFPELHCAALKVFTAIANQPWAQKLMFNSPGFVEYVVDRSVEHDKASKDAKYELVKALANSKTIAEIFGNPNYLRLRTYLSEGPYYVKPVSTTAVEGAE
proteins of U3A human fibrosarcoma cells (4462 proteins detected) (Homo sapiens, UniProt P62873), sequence (P62873 whole entry): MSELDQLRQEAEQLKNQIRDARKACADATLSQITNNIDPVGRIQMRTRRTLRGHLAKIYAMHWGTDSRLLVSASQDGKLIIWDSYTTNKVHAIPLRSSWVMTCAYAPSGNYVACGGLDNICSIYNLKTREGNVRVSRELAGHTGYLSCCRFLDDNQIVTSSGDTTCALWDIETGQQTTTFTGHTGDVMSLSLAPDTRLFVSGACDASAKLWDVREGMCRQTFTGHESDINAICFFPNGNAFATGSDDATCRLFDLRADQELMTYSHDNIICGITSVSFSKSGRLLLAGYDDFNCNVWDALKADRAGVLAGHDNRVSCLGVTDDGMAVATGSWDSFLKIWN
proteins of U3A human fibrosarcoma cells (4462 proteins detected) (Homo sapiens, UniProt P04920), sequence (P04920 whole entry): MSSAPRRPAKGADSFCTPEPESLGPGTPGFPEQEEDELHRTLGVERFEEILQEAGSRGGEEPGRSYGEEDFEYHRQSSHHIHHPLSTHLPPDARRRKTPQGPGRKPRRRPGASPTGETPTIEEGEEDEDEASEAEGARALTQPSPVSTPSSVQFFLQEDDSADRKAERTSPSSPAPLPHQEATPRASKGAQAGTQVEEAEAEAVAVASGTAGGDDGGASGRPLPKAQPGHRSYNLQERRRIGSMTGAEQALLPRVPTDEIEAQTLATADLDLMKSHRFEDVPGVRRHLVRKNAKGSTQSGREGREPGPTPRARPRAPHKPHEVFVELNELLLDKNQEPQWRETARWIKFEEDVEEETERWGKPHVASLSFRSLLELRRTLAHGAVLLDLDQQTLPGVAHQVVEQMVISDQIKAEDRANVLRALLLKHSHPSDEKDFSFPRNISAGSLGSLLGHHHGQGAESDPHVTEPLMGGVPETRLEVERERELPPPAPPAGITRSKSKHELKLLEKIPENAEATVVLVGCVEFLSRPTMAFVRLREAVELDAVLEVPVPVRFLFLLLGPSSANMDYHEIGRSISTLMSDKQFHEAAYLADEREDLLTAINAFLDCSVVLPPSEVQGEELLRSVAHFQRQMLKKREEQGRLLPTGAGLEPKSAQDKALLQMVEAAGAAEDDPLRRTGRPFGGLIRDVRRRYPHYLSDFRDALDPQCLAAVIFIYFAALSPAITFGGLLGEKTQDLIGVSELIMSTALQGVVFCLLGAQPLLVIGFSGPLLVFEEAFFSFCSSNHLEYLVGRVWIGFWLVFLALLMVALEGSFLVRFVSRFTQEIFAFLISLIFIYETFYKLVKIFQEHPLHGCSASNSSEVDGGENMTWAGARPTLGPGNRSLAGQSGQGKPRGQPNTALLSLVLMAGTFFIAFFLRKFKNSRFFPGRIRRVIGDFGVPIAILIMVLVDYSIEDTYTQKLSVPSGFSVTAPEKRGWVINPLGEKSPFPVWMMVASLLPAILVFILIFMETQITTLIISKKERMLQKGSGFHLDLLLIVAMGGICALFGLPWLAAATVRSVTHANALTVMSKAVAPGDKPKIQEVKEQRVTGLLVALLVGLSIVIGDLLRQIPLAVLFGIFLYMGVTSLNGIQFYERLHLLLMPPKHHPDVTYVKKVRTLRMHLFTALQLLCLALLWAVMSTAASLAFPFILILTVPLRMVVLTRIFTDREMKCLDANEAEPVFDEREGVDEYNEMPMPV
proteins of U3A human fibrosarcoma cells (4462 proteins detected) (Homo sapiens, UniProt Q96FF9), sequence (Q96FF9 whole entry): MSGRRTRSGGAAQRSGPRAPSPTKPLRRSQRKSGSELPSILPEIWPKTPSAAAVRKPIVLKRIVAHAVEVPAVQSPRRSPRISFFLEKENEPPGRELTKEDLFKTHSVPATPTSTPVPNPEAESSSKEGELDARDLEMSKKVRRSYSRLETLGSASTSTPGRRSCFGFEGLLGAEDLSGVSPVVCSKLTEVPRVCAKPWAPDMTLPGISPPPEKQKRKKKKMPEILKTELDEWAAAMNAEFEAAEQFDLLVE
proteins of U3A human fibrosarcoma cells (4462 proteins detected) (Homo sapiens, UniProt Q9Y281), sequence (Q9Y281 whole entry): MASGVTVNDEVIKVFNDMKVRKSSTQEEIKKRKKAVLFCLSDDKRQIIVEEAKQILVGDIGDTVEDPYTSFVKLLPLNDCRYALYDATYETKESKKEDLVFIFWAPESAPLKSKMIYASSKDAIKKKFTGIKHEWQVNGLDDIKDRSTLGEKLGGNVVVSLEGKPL

For `CCc1nc(N)nc(N)c1-c1ccc(Cl)cc1` [pyrimethamine], which “Log2 (PYR/DMSO)” value [1] is on record?
Its value is 0.14.

And the “Log2 (PYR/DMSO)” value [2]?
Its value is -0.04.

And the “Log2 (PYR/DMSO)” value [3]?
The value was 0.15.

What about the “Log2 (PYR/DMSO), GOLM1” value [4] of the same molecule?
The value was -0.22.

What about the “Log2 (PYR/DMSO)” value [5] of the same molecule?
The value was 0.14.

What about the “Log2 (PYR/DMSO)” value [6] of the same molecule?
Its value is 0.16.

And the “Log2 (PYR/DMSO)” value [7]?
Its value is 0.19.

What about the “Log2 (PYR/DMSO)” value [8] of the same molecule?
The value was -0.04.

And the “Log2 (PYR/DMSO)” value [9]?
The value was 0.19.

What about the “Log2 (PYR/DMSO)” value [10] of the same molecule?
Its value is 0.15.

And the “Log2 (PYR/DMSO)” value [11]?
Its value is -0.04.

And the “Log2 (PYR/DMSO)” value [12]?
Its value is 0.17.

What about the “Log2 (PYR/DMSO)” value [13] of the same molecule?
Its value is 0.13.

And the “Log2 (PYR/DMSO)” value [14]?
Its value is -0.05.

What about the “Log2 (PYR/DMSO)” value [15] of the same molecule?
Its value is 0.17.

And the “Log2 (PYR/DMSO)” value [16]?
Its value is 0.19.

And the “Log2 (PYR/DMSO)” value [17]?
The value was 0.22.

And the “Log2 (PYR/DMSO)” value [18]?
The value was 0.14.

What about the “Log2 (PYR/DMSO)” value [19] of the same molecule?
Its value is 0.13.

What about the “Log2 (PYR/DMSO), CCDC134” value [20] of the same molecule?
Its value is 0.23.

And the “Log2 (PYR/DMSO)” value [21]?
Its value is -0.04.

And the “Log2 (PYR/DMSO)” value [22]?
Its value is -0.04.

What about the “Log2 (PYR/DMSO), GUK1” value [23] of the same molecule?
The value was -0.14.

And the “Log2 (PYR/DMSO)” value [24]?
The value was 0.18.

What about the “Log2 (PYR/DMSO)” value [25] of the same molecule?
The value was 0.14.

And the “Log2 (PYR/DMSO)” value [26]?
The value was 0.19.

What about the “Log2 (PYR/DMSO)” value [27] of the same molecule?
Its value is 0.19.

And the “Log2 (PYR/DMSO)” value [28]?
Its value is 0.17.

What about the “Log2 (PYR/DMSO)” value [29] of the same molecule?
Its value is 0.14.
